Assay results as given in patent publication US5561042A, “Diamine platinum naphthalimide complexes as antitumor agents” (Cancer Therapy and Research Center, priority 1995, dated 1996).
≈ marks a conversion by molar mass, not a printed value.

Columns and labels:
[1] = human, in vivo; cited from earlier work
[2] = human, in vivo; cited from earlier work; remark: listed apart in the source
topoisomerase II = settings: cited from earlier work
[3] = system: SV40 DNA (Form I, negatively supercoiled); settings: comparison with compound 21; no own test described; cited from earlier work
Lambda DNA = assay: Ethidium bromide displacement, lambda DNA; type: binding; settings: 1 μM DNA, 1.26 μM ethidium bromide, pH 7.0, read-out: FI50, Lambda DNA
Protocol: (§1) A 10× Binding solution was prepared by combining 0.93 ml of an aqueous NaCl solution (5M), 2.0 ml of an aqueous Tris HCl (500 mM) solution, 0.1 ml of an EDTA solution (500 mM) and 46.97 ml of water. The resultant solution was 93 mM in NaCl, 20 mM in Tris HCl, and 1 mM in EDTA. Stock DNA solution were prepared as follows: Poly (dG·dC)-(dG·dC) (ε254=8.4/mM; 27-7910-02), poly(dA·dT)-(dA·dT) (ε262=6.6/mM; 27-7870-02), and lambda DNA (ε260-7.0/mM; 27-4111-01) were purchased from Pharmacia. Solutions were prepared by resuspending either poly (dG·dC)-(dG·dC) or poly(dA·dT)-(dA·dT)in 1 ml of 10× DNA Binding Solution. Lambda DNA is already in solution as purchased.
(§2) Poly (dG·dC)-(dG·dC), poly(dA·dt)-(dA·dt) and lambda DNA concentrations were determined as follows: 980 μl of 10× DNA Binding Solution was pipetted into a 1 ml cuvette. A blank was run on the UV spectrophotometer. 20 μl of the DNA stock of unknown concentration was then added into the cuvette. The sample was then scanned between 210 nm to 500 nm and the absorbance recorded at 254 nm for poly(dG·dC)-(dG·dC), at 262 nm for poly(dA·dT)-(dA·dT) and at 260 nm for lambda DNA. The solution was transferred to a clean tube. This procedure was followed for three different solutions with the absorbance taken as the average of the three. The concentration of poly(dG·dC)-(dG·dC) stock was calculated to be A254 /8.4×1000 (in μM). The concentration of poly(dA·dT)-(dA·dT) stock was calculated to be A262 /6.6×1000 (in μM). The concentration of lambda DNA stock was calculated to be A260 /7.0×1000 (in μM).
(§3) The binding of the bis-naphthalimides to DNA and to synthetic polynucleotide duplexes was determined by an ethidium bromide displacement assay that measures the reduction of fluorescence when ethidium bromide is displaced from DNA (Baguley, 1981). The fluorescence intensity of a 3 ml solution containing 9.3 mM NaCl, 2 mM Tris-HCl (pH 7.0), 100 μM EDTA, 1 μM DNA (in nucleotides) and 1.26 μM ethidium bromide in a quartz cuvette was measured at the excitation (546 nm) and emission (600 nm) wavelengths on a Shimadzu RF5000U spectrofluorometer. Graded concentrations of agent were then added and the fluorescence intensity was measured. The concentration of compound required to reduce the fluorescence intensity by 50% of that of control (FI50) was determined. Therefore, the lower the FI50 the stronger the binding affinity a particular compound has for DNA.
(§4) The ability of bis-naphthalimides of the present invention and the known anti-cancer agents compound 22 and DMP840, (R,R)-2,2'[1,2-ethanediylbis[imino(1-methyl-2,1-ethanediyl)]]-bis[5-nitro- 1H benz[de]isoquinoline-1,3-(2H)dione]dimethanesulfonate, to bind to DNA and to synthetic oligonucleotide duplexes was measured using an ethidium bromide displacement assay. Ethidium bromide, a known DNA intercalator, has no fluorescence in the absence of DNA; however, fluorescence intensity increases when ethidium bromide binds to DNA. The ethidium bromide displacement assay measures the decrease in fluorescence intensity caused by DNA-bound ethidium bromide with DNA interacting agents.

[4] = system: poly (dG.dC) - poly (dG.dC); assay: Ethidium bromide displacement, poly(dG.dC)-poly(dG.dC); type: binding; settings: for Ratio (AT/GC): FI50 poly(dA.dT)-poly(dA.dT) / FI50 poly(dG.dC)-poly(dG.dC); for IC50: ethidium bromide displacement, 1 μM DNA, 1.26 μM ethidium bromide, pH 7.0, read-out: FI50, poly (dG.dC) - poly (dG.dC)
Protocol: as §1, §2, §3, §4

[5] = biological target: poly (dA.dT) - poly (dA.dT); assay: Ethidium bromide displacement, poly(dA.dT)-poly(dA.dT); type: binding; settings: 1 μM DNA, 1.26 μM ethidium bromide, pH 7.0, read-out: FI50, poly (dA.dT) - poly (dA.dT)
Protocol: as §1, §2, §3, §4

[6] = system: Murine B16 melanoma cell line; assay: In vitro growth inhibition (MTT), B16 melanoma; type: cell-based; settings: for IC50: Mus musculus, B16, 72 h, MTT, 3 days
Text: (§5) P388 murine leukemic cell line was obtained from the DCT Tumor Repository (National Cancer Institute, Frederick Cancer Research and Development, Frederick Md. 21702). HT29 Human Colon Carcinoma cell line was obtained from the American Type Culture Collection (12301 Parklawn Drive, Rockville, Md. 20852). B16 Melanoma cell line was obtained from DuPont Merck Pharmaceutical Company (Glenolden, Pa. 19036). MCF-7 Human Breast Carcinoma cell line was a gift from Dr. K. Osborne (Department of Medicine, The University of Texas Health Science Center at San Antonio, San Antonio, Tex. 78284). All cell lines were incubated at 37° C. in a humidified atmosphere of 5% CO2 -95% air. Murine B16 melanoma cell line was grown in RPMI 1640 medium supplemented with 10% heat-inactivated fetal bovine serum, 2 mM L-glutamine, 50 units/ml penicillin, 50 μg/ml streptomycin, 25 μg/ml gentamycin, 0.75% sodium bicarbonate, 10 mM HEPES buffer (pH 7.4), and 0.06 mg/ml AntiPPLO. Murine P388 leukemic and the human HT-29 colon adenocarcinoma cell lines were maintained in RPMI 1640 medium supplemented with 10% heat-inactivated fetal bovine serum. MCF-7M human breast adenocarcinoma was maintained in IMEM medium supplemented with 5% non heat-inactivated fetal bovine serum and 1 nM insulin.
(§6) Exponentially growing cells (1-2×10^3 cells, unless specified otherwise) in 0.1 ml medium were seeded on day 0 in a 96-well microtiter plate. On day 1, 0.1 ml aliquots of medium containing graded concentrations of test compounds were added in duplicate to the cell plates. After incubation at 37° C. in a humidified incubator for 3 days (P388, B16) or 6 days (HT-29, MCF-7M), the plates were centrifuged briefly and 100 μl of the growth medium was removed. Cell cultures were incubated with 50 μl of 3-(4,5-dimethylthiazol-2-yl)-2,5-diphenyl-tetrazolium bromide [MTT, 1 mg/ml in Dulbecco's phosphate buffered saline (PBS)] for 4 hr at 37° C. The resulting purple formazan precipitate was solubilized with 200 μl of 0.04N HCl in isopropyl alcohol. Absorbance was monitored in a BioRad Model 3550 Microplate Reader at a test wavelength of 570 nm and a reference wavelength of 630 nm. The absorbance was transferred to a PC 486 computer. The IC50 values were determined by a computer program (EZ-ED50) that fit all of the data to the following four-parameterlogistic equation:
(§7) Y=((Am -Ao)/(1+(X/IC50)^n))+Ao
(§8) where Am is the absorbance of control cells, Ao is the absorbance of cells in the presence of highest agent concentration, Y is the observed absorbance, X is the agent concentration, IC50 is the concentration of agent that inhibits the cell growth by 50% of control cells (based on the absorbance) and n is the slope of the curve.

DNA = assay: Ethidium bromide displacement, DNA binding in general
Protocol: as §3
as §4, with “The ethidium bromide displacement assay measures the decrease in fluorescence intensity caused by DNA-bound ethidium bromide with DNA interacting agents.” left out

[7] = cited from earlier work
[8] = system: MX-1 human breast carcinoma; settings: in vivo; cited from earlier work
[9] = system: DLD-2 human colon adenocarcinoma; settings: in vivo; cited from earlier work
B16 melanoma = settings: cited from earlier work
[10] = system: P388 murine leukemic cell line; assay: In vitro growth inhibition (MTT), P388 leukemia; type: cell-based; settings: Mus musculus, P388, 72 h, 3 days
Text: as §5, §6, §7, §8

[11] = system: MCF-7 Human Breast Carcinoma cell line; assay: In vitro growth inhibition (MTT), MCF-7 breast carcinoma; type: cell-based; settings: Homo sapiens, MCF7, 144 h, 6 days
Text: as §5, §6, §7, §8

LX-1 lung carcinoma = settings: in vivo; cited from earlier work
[12] = system: solid tumor xenografts, human and murine leukemia, doxorubicin resistant cell lines, colon carcinoma cells; settings: cited from earlier work
[13] = in vivo; cited from earlier work
B16 murine melanoma = assay: B16 melanoma in vivo, survival of B6D2F1 mice; settings: q.d. × 5, i.p.; for T/C: mean survival treated/control
Protocol: B6D2F1 mice received i.p. inocula of B16 murine melanoma brei prepared from B16 tumors growing subcutaneously in mice (day 0). On day 1, rumored mice were treated with drugs or vehicle control; the route of drug administration and schedule were selected as appropriate for the study in question. If dosing information for agents was not available, the maximum tolerated dose (MTD) was determined in initial dose finding experiments in non-tumored mice. In a typical experiment, drugs were given at their MTD and 1/2 MTD doses i.p. on a daily×5 schedule.
The mean survival times of all groups were calculated, and results were expressed as mean survival of treated mice/mean survival of control mice (T/C)×100%. A T/C value of 150 means that the mice in the treated group lived 50% longer than those of the control group; this is sometimes referred to as the increase in life space, or ILS value.
Mice that survived for 60 days were considered long term survivors, or cures, in the B16 model. The universally accepted cut-off for activity in this model, which has been used for years by the National Cancer Institute, is T/C=125.
Statistics were performed on the data using primarily the log rank p-value test.

COc1cc(NS(C)(=O)=O)ccc1Nc1c2ccccc2nc2ccccc12 [amsacrine]
clinical anti-tumor activity (in words) [1]: exhibit clinical anti-tumor activity

COc1cccc2c1C(=O)c1c(O)c3c(c(O)c1C2=O)C[C@@](O)(C(=O)CO)C[C@@H]3O[C@H]1C[C@H](N)[C@H](O)[C@H](C)O1 [Doxorubicin]
cardiomyopathy (in words) [2]: unusual cardiomyopathy

CN(C)CCN1C(=O)c2cccc3cc(N)cc(c23)C1=O [amonafide]
inhibition of topoisomerase II (in words) (topoisomerase II): inhibit topoisomerase II

N.N.[Cl][Pt][Cl] [Cisplatin]
effect on DNA conformation (in words) [3]: does not show such an effect and causes unwinding only after prolonged incubation

O=C1c2cccc3cc([N+](=O)[O-])cc(c23)C(=O)N1CCOCCOCCN1C(=O)c2cccc3cc([N+](=O)[O-])cc(c23)C1=O [Compound 19, 5-[2-(3-Nitronaphthalene-1,8-dicarboximido)ethoxy]-1-(3-nitronaphthalene-1,8-dicarboximido)-3-oxapentane]
IC50 (Lambda DNA): 56000 nM | Ratio (AT/GC) [4]: 1.7 | IC50 [4]: 49000 nM | IC50 [5]: 83000 nM | anticancer activity against B16 melanoma in vitro (in words) [6]: potent anticancer activity against this melanoma type | IC50 [6]: 51 nM | DNA binding (in words) (DNA): did not bind to DNA

COc1cccc2c1C(=O)c1c(O)c3c(c(O)c1C2=O)C[C@@](O)(C(C)=O)C[C@@H]3O[C@H]1C[C@H](N)[C@H](O)[C@H](C)O1 [daunorubicin]
cardiomyopathy (in words) [2]: unusual cardiomyopathy

O=C1c2c(O)cccc2-c2nn(CCNCCO)c3ccc(NCCNCCO)c1c23 [DuP 941]
clinical anti-tumor activity (in words) [1]: exhibit clinical anti-tumor activity

CS(=O)(=O)O.O=C1c2cccc3cc([N+](=O)[O-])cc(c23)C(=O)N1CCCCNCCCN1C(=O)c2cccc3cc([N+](=O)[O-])cc(c23)C1=O [XB596]
water solubility [7]: 45 µg/mL | anti-tumor activity, MX-1 (in words) [8]: demonstrated in vivo anti-tumor activity | anti-tumor activity, DLD-2 (in words) [9]: demonstrated in vivo anti-tumor activity | activity against B16 melanoma (in words) (B16 melanoma): ineffective against B16 melanoma

C[C@H](CNCCNC[C@@H](C)N1C(=O)c2cccc3cc([N+](=O)[O-])cc(c23)C1=O)N1C(=O)c2cccc3cc([N+](=O)[O-])cc(c23)C1=O [DMP840, (R,R)-2,2'[1,2-ethanediylbis[imino (1-methyl-2,1-ethanediyl)]]-bis[5-nitro-1H-benz[de]isoquinoline-1,3-(2H)-dione]dimethanesulfonate]
IC50 (Lambda DNA): 73 nM | Ratio (AT/GC) [4]: 35.2 | IC50 [4]: 92 nM | IC50 [5]: 3280 nM | IC50 [10]: 6 nM | IC50 [6]: 27 nM | IC50 [11]: 7 nM | water solubility [7]: 3400 µg/mL (≈ 5.44 mM) | anti-tumor activity, MX-1 (in words) [8]: anti-tumor efficacy in vivo | anti-tumor activity, DLD-2 (in words) [9]: anti-tumor efficacy in vivo | anti-tumor efficacy, LX-1 (in words) (LX-1 lung carcinoma): anti-tumor efficacy in vivo | anti-tumor efficacy in vivo (in words) [12]: anti-tumor efficacy in vivo | irreversible toxicities (in words) [13]: no irreversible toxicities | 60-Day Survivors (B16 murine melanoma; 5 mg/kg): 0 | Wt. Ch. (%) (Day 7) (B16 murine melanoma; 5 mg/kg): +4.6% | T/C (B16 murine melanoma; 5 mg/kg): 156% | 60-Day Survivors (B16 murine melanoma; 10 mg/kg): 0 | Wt. Ch. (%) (Day 7) (B16 murine melanoma; 10 mg/kg): -0.33% | T/C (B16 murine melanoma; 10 mg/kg): 179%
